Source: patent US20250109275A1, “AMINE FATTY ACID ADDUCTS AS TIRE COMPOUNDING ADDITIVES” (priority 2023, published 2025)

Assays:
[1] = Flash point of the additive; format: physicochemical; conditions: neat additive
[2] = Pour point of the additive; format: physicochemical; set-up: unit not given here; conditions: neat additive
[3] = neat additive
Source text: Additional characteristics of the exemplary additives and controls are shown below in Table 9. […] The Control and Control 2 are the presented formula without an additive included. […] Blend 1 is the presented formula with a blend of rosin ester tackifier and fatty acid ester used as a control additive. For Control 2 and Inventive Ex. 1-Adj, the first pass and second pass were mixed in the mixer, but the final pass was mixed on the mill. Inventive Ex. 1-Adj was split into three (3) to allow for three (3) different cure adjustments to try to increase the Ts2 (the […] time for the viscosity to increase 2 units above minimum torque (ML)), slightly reduce Tc90 (the time it takes to get to 90% of the maximum state of cure/cross-linking (MH or maximum torque)), and increase the maximum torque (MH) to more closely match the Moving Die Rheometer (MDR) curve of the control compound.

Molecule | Flash Point [1] | Pour Point [2] | Water Solubility [3]
CCCCCCCC/C=C\CCCCCCCC(=O)NCCNCCN [Inventive Ex. 1, diethylenetriamine (DETA) oleic acid amidoamine] | >200 C. | 36 | 
CCCCCCCC/C=C\CCCCCCCC1=NCCN1CCN [Inventive Ex. 2, diethylenetriamine (DETA) oleic acid imidazoline] | >200 C. | −27 | Partial ~2%
CCCCCCCC/C=C\CCCCCCCC(=O)NCCCN(C)C [Inventive Ex. 6, dimethylaminopropylamine (DMAPA) oleic acid amidoamine] | 113 C. | 0 | 
CCCCCCCC/C=C\CCCCCCCC(=O)NCCNCCNC(=O)CCCCCCC/C=C\CCCCCCCC [Inventive Ex. 3, diethylenetriamine (DETA) oleic acid bisamide] | >200 C. | 78 | none
tetraethylenepentamine (TEPA) oleic acid amidoamine [Inventive Ex. 5] | >200 C. | −12 | 
